Literature values, collected in patent US20230233480A1, “TRANSDERMAL THERAPEUTIC SYSTEM FOR THE TRANSDERMAL ADMINISTRATION OF FINGOLIMOD” (LTS LOHMANN THERAPIE-SYSTEME AG, priority 2019, published 2023).

## CCCCCCCCc1ccc(CCC(N)(CO)CO)cc1 [fingolimod, 2-amino-2-[2-(4-octylphenyl)ethyl]propane-1,3-diol]
Humans at steady state after administration of 0.5 mg/day
  ratio of Cmax fingolimod phosphate/Cmax fingolimod: about 0.5
humans, once-daily dosing
  accumulation of blood levels from first dose to steady state: ~11 fold
